Reference: patent US20230391772A1, “METHODS AND COMPOSITIONS FOR TARGETED PROTEIN DEGRADATION” (Ranok Therapeutics (Hangzhou) Co. Ltd., priority 2020, published 2023)

Key:
HSP90a protein = molecular target: T1, HSP90a protein (Homo sapiens, UniProt P07900); test: HSP90α-binding fluorescent polarization (FP) assay, BODIPY-labeled RNK04010 probe; conditions: FP competition with RNK04010 (BODIPY-labeled), 5 nM, 300 min at 25° C.
T1 construct: purchased BPS Bioscience 50298
In short: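 Binding was scored by fluorescence polarization after adding N-terminal HSP90a to wells holding probe and compound, with compound tested from 20 μM to 5.2 nM. Probe-dependent times at 25° C were 120 min for FITC-geldanamycin and 300 min for RNK04010-BODIPY, both at 5 nM final.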

[1] = tested on: NCI-H23 human non-small cell lung cancer; test: NCI-H23 CCK-8 proliferation assay; format: cell-based; conditions: NCI-H23 cells, 72 hr
Experimental: (§1) The following cancer cell lines were employed: BT-474 human breast carcinoma (ATCC, #HTB-20); MIA PaCa-2 human pancreatic carcinoma [2 copies KRAS(G12C)](ATCC, #CRL-1420); NCI-H23 human non-small cell lung cancer [1 copy KRAS(G12C)](ATCC, #CRL-5800); NCI-H358 human non-small cell lung cancer [1 copy KRAS(G12C)](ATCC, #CRL-5807); LU65A human lung carcinoma (Pharmaron, Beijing, China). Cell lines were cultured essentially according to ATCC and Pharmaron recommendations.
Cancer Cell Line Proliferation (CCK-8) Assays
3-fold serial dilutions of each test compound were prepared ranging from 20 μM to 1.02 nM.
% Inhibition=100−(D−B)/(S−B)*100%. • S: Absorbance of cells treated with DMSO • D: Absorbance of compound-treated cells • B: Absorbance of medium with DMSO without cells

[2] = tested on: NCI-H358 human non-small cell lung cancer; test: NCI-H358 CCK-8 proliferation assay; format: cell-based; conditions: NCI-H358 cells, 72 hr
In short: (§2)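 MIA PaCa-2 (2 copies KRAS(G12C)), NCI-H358 and NCI-H23 (1 copy KRAS(G12C) each) were exposed to compound in 3-fold serial dilutions from 20 μM to 1.02 nM. Viability was read as CCK-8 absorbance, and % inhibition was computed against DMSO-treated cells, with cell-free DMSO medium as blank.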

[3] = tested on: MIA PaCa-2 human pancreatic carcinoma; test: MIA PaCa-2 CCK-8 proliferation assay; format: cell-based; conditions: Homo sapiens, MIA PaCa-2, 72 h, MIA PaCa-2 cells
In short: as §2

KRAS(G12C) [4] = molecular target: T2, KRAS(G12C) (Homo sapiens, UniProt P01116, G12C); test: KRAS(G12C) Western blot protein degradation assay in MIA PaCa-2 cells; format: cell-based; design: host or cells: LU65A; conditions: 48 hr; for inhibition at 0.1562 µM: 156.2 nM; for inhibition at 0.3125 µM: 312.5 nM; for inhibition at 0.625 µM: 625 nM; for inhibition at 1.25 µM: 1250 nM; for inhibition at 2.5 µM: 2500 nM; for inhibition at 5 µM: 5000 nM; for inhibition at 10 µM: 10,000 nM
Experimental: as §1
KRAS(G12C) Western Blot Protein Degradation Assay
The MIA PaCa-2 human pancreatic carcinoma cell line and LU65A human lung cancer cell line, which expresses KRAS(G12C), were seeded in 6- or 12-well tissue culture plates, and after 1 hr, test compounds were added at various concentrations and incubated at 37° C./5% CO2 for 48 hr (MIA Paca-2) and 6 hr (LU65A) respectively. Cells were then washed with cold PBS, aspirated and cold RIPA buffer containing a protease/phosphatase inhibitor cocktail was added to lyse cells. After centrifugation, the total protein concentrations of cell lysates were determined using the BCA protein assay. Samples were normalized for equivalent protein concentrations, 5×SDS-PAGE loading buffer added and denatured at 100° C. for 10 min. 20 μl of each sample/well was loaded on a SDS-PAGE gel and electrophoresed for 20 min at 80 V, then 120 V for 1.5 hr. Gels were then electroblotted to nitrocellulose membranes using a wet-transfer method at 250 mA for 2.5 hr. Membranes were incubated with blocking buffer for 1 hr and washed 3 times with TBST for 5 min. Membranes were then incubated with anti-KRAS (Sigma-Aldrich, #SAB1404011) and anti-β-Actin monoclonal antibodies (Cell Signaling Technology, #3700) diluted in blocking buffer at 4° C. overnight per the manufacturer's recommendations. After washing 3 times, blots were incubated with appropriately labeled secondary antibodies for 1 hr at room temperature and washed again. Fluorescence imaging and quantitation was performed using a LI-COR Odyssey. Results was analyzed using GraphPad Prism 7 software. Compound degradation of was determined by the following equation and DC50 values (the concentration at which 50% of the maximal degradation of KRAS occurs) calculated using GraphPad Prism 7 software:
% Inhibition=100−(D−B)/(S−B)*100%. • S: Fluorescence intensity of cells with antibody • D: Fluorescence intensity of compound-treated cells with antibody • B: Fluorescence intensity of cells without antibody

KRAS(G12C) [5] = molecular target: T2, KRAS(G12C); test: KRAS(G12C)/SOS1 homogeneous time-resolved fluorescence (HTRF) assay; design: purchased Cisbio 63ADK000CB16PEG; conditions: absence of GTP, 4° C. for 3 hr, read-out: KRAS (G12C) binding
In short: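 Three-hour incubation at 4 °C of 3-fold compound dilutions (lowest 1.02 nM) with KRAS(G12C), SOS1 and detection reagents, GTP absent. Disruption of the KRAS(G12C)/SOS1 complex detected by time-resolved fluorescence.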

KRAS(G12C) [6] = molecular target: T2, KRAS(G12C); test: KRAS(G12C) Western blot protein degradation assay in LU65A cells; format: cell-based; design: LU65A human lung cancer cell line, which expresses KRAS(G12C); host or cells: LU65A; conditions: 6 hr
In short: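 KRAS levels read by fluorescent Western blot (β-actin as reference) on BCA-normalized lysates. Exposure to a compound concentration range at 37 °C lasted 6 hr in LU65A and 48 hr in MIA PaCa-2; DC50 taken as half-maximal degradation concentration.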

T2 sequence (P01116 1-188 isoform P01116-2 G12C): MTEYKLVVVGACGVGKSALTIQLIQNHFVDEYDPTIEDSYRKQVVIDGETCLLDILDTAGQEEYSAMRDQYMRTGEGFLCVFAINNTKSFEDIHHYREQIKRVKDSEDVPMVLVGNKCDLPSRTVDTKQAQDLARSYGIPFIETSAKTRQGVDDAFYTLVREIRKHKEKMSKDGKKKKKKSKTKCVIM

| SMILES | IC50 (HSP90a protein) [nM] | EC50 [1] [nM] | EC50 [2] [nM] | EC50 [3] [nM] | inhibition at 0.1562 µM (KRAS(G12C) [4]) [%] | inhibition at 0.3125 µM (KRAS(G12C) [4]) [%] | inhibition at 0.625 µM (KRAS(G12C) [4]) [%] | inhibition at 1.25 µM (KRAS(G12C) [4]) [%] | inhibition at 2.5 µM (KRAS(G12C) [4]) [%] | inhibition at 5 µM (KRAS(G12C) [4]) [%] | inhibition at 10 µM (KRAS(G12C) [4]) [%] | IC50 (KRAS(G12C) [5]) [nM] | DC50 (KRAS(G12C) [6]) [nM] |
| --- | --- | --- | --- | --- | --- | --- | --- | --- | --- | --- | --- | --- | --- |
| CC(=O)N1CCN(c2nc(NCCC(=O)N3CCN(Cc4ccc(CN(C)Cc5ccc(-n6c(C(=O)NCC(F)(F)F)nnc6-c6cc(C(C)C)c(O)cc6O)cc5)cc4)CC3)nc3c2CCN(c2cc(O)cc4ccccc24)C3)CC1 [Compound 115, 4-(4-(((4-((4-(3-((4-(4-acetylpiperazin-1-yl)-7-(3-hydroxynaphthalen-1-yl)-5,6,7,8-tetrahydropyrido[3,4-d]pyrimidin-2-yl)amino)propanoyl)piperazin-1-yl)methyl)benzyl)(methyl)amino)methyl)phenyl)-5-(2,4-dihydroxy-5-isopropylphenyl)-N-(2,2,2-trifluoroethyl)-4H-1,2,4-triazole-3-carboxamide, trifluoroacetic acid] | 100 to 1000 | 100 to 1000 | 100 to 1000 |  |  |  |  |  |  |  |  |  |  |
| C=CC(=O)N1CCN(c2nc(OC[C@@H]3CCN(C(=O)C4CCN(Cc5ccc(-n6c(O)nnc6-c6cc(C(C)C)c(O)cc6O)cc5)CC4)C3)nc3c2CCN(c2cccc4cccc(Cl)c24)C3)C[C@@H]1CC#N [Compound 148, 2-((S)-1-acryloyl-4-(7-(8-chloronaphthalen-1-yl)-2-(((R)-1-(1-(4-(3-(2,4-dihydroxy-5-isopropylphenyl)-5-hydroxy-4H-1,2,4-triazol-4-yl)benzyl)piperidine-4-carbonyl)pyrrolidin-3-yl)methoxy)-5,6,7,8-tetrahydropyrido[3,4-d]pyrimidin-4-yl)piperazin-2-yl)acetonitrile] | < 100 |  | 100 to 1000 | 100 to 1000 | < 33 | < 33 | < 33 | < 33 | < 33 | < 33 | 33 to 66 | 100 to 1000 |  |
| CCC(=O)N1CCN(c2nc(N3CCC(CN4CCN(Cc5ccc(-n6c(O)nnc6-c6cc(C(C)C)c(O)cc6O)cc5)CC4)CC3)nc3c2CCN(c2cccc4cccc(Cl)c24)C3)C[C@@H]1CC#N [Compound 128, (S)-2-(4-(7-(8-chloronaphthalen-1-yl)-2-(4-((4-(4-(3-(2,4-dihydroxy-5-isopropylphenyl)-5-hydroxy-4H-1,2,4-triazol-4-yl)benzyl)piperazin-1-yl)methyl)piperidin-1-yl)-5,6,7,8-tetrahydropyrido[3,4-d]pyrimidin-4-yl)-1-propionylpiperazin-2-yl)acetonitrile] | 100 to 1000 | 100 to 1000 | 100 to 1000 |  |  |  |  |  |  |  |  |  |  |
| CCC(=O)N1CCN(c2nc(NCCC(=O)N[C@H](C)c3ccc(CN4CCC(Cc5ccc(-n6c(O)nnc6-c6cc(C(C)C)c(O)cc6O)cc5)CC4)cc3)nc3c2CCN(c2cc(O)cc4ccccc24)C3)CC1 [Compound 61] | < 100 | > 1000 | 100 to 1000 |  |  |  |  |  |  |  |  |  |  |
| C=CC(=O)N1CCN(c2nc(NCCC(=O)N3CCC(Cc4ccc(-n5c(C(=O)NCC(F)(F)F)nnc5-c5cc(C(C)C)c(O)cc5O)cc4)CC3)nc3c2CCN(c2cc(O)cc4ccccc24)C3)CC1 [Compound 11, 4-(4-((1-(3-((4-(4-acryloylpiperazin-1-yl)-7-(3-hydroxynaphthalen-1-yl)-5,6,7,8-tetrahydropyrido[3,4-d]pyrimidin-2-yl)amino)propanoyl)piperidin-4-yl)methyl)phenyl)-5-(2,4-dihydroxy-5-isopropylphenyl)-N-(2,2,2-trifluoroethyl)-4H-1,2,4-triazole-3-carboxamide, trifluoroacetic acid] | > 1000 | > 1000 | 100 to 1000 |  |  |  |  |  |  |  |  |  |  |

Continued, values first:

| IC50 (HSP90a protein) [nM] | EC50 [1] [nM] | EC50 [2] [nM] | EC50 [3] [nM] | inhibition at 0.1562 µM (KRAS(G12C) [4]) [%] | inhibition at 0.3125 µM (KRAS(G12C) [4]) [%] | inhibition at 0.625 µM (KRAS(G12C) [4]) [%] | inhibition at 1.25 µM (KRAS(G12C) [4]) [%] | inhibition at 2.5 µM (KRAS(G12C) [4]) [%] | inhibition at 5 µM (KRAS(G12C) [4]) [%] | inhibition at 10 µM (KRAS(G12C) [4]) [%] | IC50 (KRAS(G12C) [5]) [nM] | DC50 (KRAS(G12C) [6]) [nM] | SMILES |
| --- | --- | --- | --- | --- | --- | --- | --- | --- | --- | --- | --- | --- | --- |
| > 1000 |  | > 1000 |  | < 33 | < 33 | < 33 | < 33 | < 33 | < 33 | < 33 | > 1000 |  | C=CC(=O)N1CCN(c2nc(OC[C@@H]3CCN(C(=O)c4cc(C(C)C)c(OC)cc4O)C3)nc3c2CCN(c2cccc4cccc(Cl)c24)C3)C[C@@H]1CC#N [Compound 159, 2-((S)-1-acryloyl-4-(7-(8-chloronaphthalen-1-yl)-2-(((R)-1-(2-hydroxy-5-isopropyl-4-methoxybenzoyl)pyrrolidin-3-yl)methoxy)-5,6,7,8-tetrahydropyrido[3,4-d]pyrimidin-4-yl)piperazin-2-yl)acetonitrile] |
| > 1000 |  | > 1000 |  | < 33 | < 33 | < 33 | < 33 | < 33 | < 33 | < 33 | > 1000 |  | C=CC(=O)N1CCN(c2nc(OC[C@@H]3CCN(C(=O)c4cc(C(C)C)c(O)cc4O)C3)nc3c2CCN(c2cccc4cccc(Cl)c24)C3)C[C@@H]1CC#N [Compound 157, 2-((S)-1-acryloyl-4-(7-(8-chloronaphthalen-1-yl)-2-(((R)-1-(2,4-dihydroxy-5-isopropylbenzoyl)pyrrolidin-3-yl)methoxy)-5,6,7,8-tetrahydropyrido[3,4-d]pyrimidin-4-yl)piperazin-2-yl)acetonitrile] |
| > 1000 |  | > 1000 | > 1000 | < 33 | < 33 | < 33 | < 33 | < 33 | < 33 | < 33 | > 1000 |  | C=CC(=O)N1CCN(c2nc(OC[C@@H]3CCN(C(=O)c4cc(CC)c(O)cc4O)C3)nc3c2CCN(c2cccc4cccc(Cl)c24)C3)C[C@@H]1CC#N [Compound 158, 2-((S)-1-acryloyl-4-(7-(8-chloronaphthalen-1-yl)-2-(((R)-1-(5-ethyl-2,4-dihydroxybenzoyl)pyrrolidin-3-yl)methoxy)-5,6,7,8-tetrahydropyrido[3,4-d]pyrimidin-4-yl)piperazin-2-yl)acetonitrile] |
| > 1000 |  |  |  |  |  |  |  |  |  | 33 to 66 | 100 to 1000 | > 1000 | C=CC(=O)N1CCN(c2nc(OC[C@@H]3CCN(CCC(=O)c4cc(C(C)C)c(O)cc4O)C3)nc3c2CCN(c2cccc4cccc(Cl)c24)C3)C[C@@H]1CC#N [Compound 186, 2-((S)-1-acryloyl-4-(7-(8-chloronaphthalen-1-yl)-2-(((R)-1-(3-(2,4-dihydroxy-5-isopropylphenyl)-3-oxopropyl)pyrrolidin-3-yl)methoxy)-5,6,7,8-tetrahydropyrido[3,4-d]pyrimidin-4-yl)piperazin-2-yl)acetonitrile, trifluoroacetic acid] |
